Experimental findings from patent US11377441B2, “Covalent inhibitors of KRAS” (Araxes Pharma LLC, priority 2017, dated 2022) are described below.

This assay deals with T1, KRAS G12C 1-169, his-tagged protein, GDP-loaded (Homo sapiens, UniProt P01116, G12C).
T1 construct: KRAS G12C 1-169, his-tagged protein, GDP-loaded
Put plainly: Biochemical assay: covalent modification of KRAS G12C measured by mass spectrometry (RapidFire/TOF or Q-Exactive). In kind it is binding. The settings on record: covalent binding to (modification of) KRAS G12C after a ten minute incubation period. In short, it runs like this: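 Intact-mass readout (TOF or Q-Exactive, charge-envelope deconvolution) gives percent covalent adduct from modified and unmodified species. Compound at 10, 30 or 100 μM was incubated at room temperature for 10 min to 24 h with 2 μM or 0.5 μM GDP-bound KRAS G12C 1-169 in Hepes/NaCl/MgCl2 buffer, then acid-quenched.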

`C=CC(=O)N1C[C@H](C)N(c2nc(N3CC(N(C)C)C3)nc3c(F)c(-c4c(C)ccc5[nH]nc(N)c45)c(Cl)cc23)C[C@H]1C` [Compound 3, 1-((2R,5S)-4-(7-(3-amino-5-methyl-1H-indazol-4-yl)-6-chloro-2-(3-(dimethylamino)azetidin-1-yl)-8-fluoroquinazolin-4-yl)-2,5-dimethylpiperazin-1-yl)prop-2-en-1-one]: the Binding % result was “+++ (+++ indicates binding activity greater than 80%)”. In the case of `C=CC(=O)N1C[C@H](C)N(c2nc(N3CC(N(C)C)C3)nc3c(F)c(-c4c(C)ccc5[nH]nc(NC)c45)c(Cl)cc23)C[C@H]1C` [Compound 13, 1-((2R,5S)-4-(6-chloro-2-(3-(dimethylamino)azetidin-1-yl)-8-fluoro-7-(5-methyl-3-(methylamino)-1H-indazol-4-yl)quinazolin-4-yl)-2,5-dimethylpiperazin-1-yl)prop-2-en-1-one] it was “++ (++ indicates binding activity from 50 to 80%)”; in that of `C=CC(=O)N1C[C@H](C)N(c2nc(N3CC(N(C)C)C3)nc3c(F)c(-c4c(C)ccc5c(N)n[nH]c45)c(Cl)cc23)C[C@H]1C` [Compound 22, 1-((2R,5S)-4-(7-(3-amino-6-methyl-1H-indazol-7-yl)-6-chloro-2-(3-(dimethylamino)azetidin-1-yl)-8-fluoroquinazolin-4-yl)-2,5-dimethylpiperazin-1-yl)prop-2-en-1-one], “+ (+ indicates binding activity greater than 0% and up to 50%)”.

On to `C=CC(=O)N1C[C@H](C)N(c2nc(N3CC(N(C)C)C3)nc3c(F)c(-c4c(C)ccc5[nH]nc(Cl)c45)c(Cl)cc23)C[C@H]1C` [Compound 23, 1-((2R,5S)-4-(6-chloro-7-(3-chloro-5-methyl-1H-indazol-4-yl)-2-(3-(dimethylamino)azetidin-1-yl)-8-fluoroquinazolin-4-yl)-2,5-dimethylpiperazin-1-yl)prop-2-en-1-one], for which the Binding % entry is reported as “+++ (+++ indicates binding activity greater than 80%)”. In the case of `C=CC(=O)N1C[C@H](C)N(c2nc(N3CC(N(C)C)C3)nc3c(F)c(-c4ccc(F)c5[nH]ncc45)c(Cl)cc23)C[C@H]1C` [Compound 29, 1-((2R,5S)-4-(6-chloro-2-(3-(dimethylamino)azetidin-1-yl)-8-fluoro-7-(7-fluoro-1H-indazol-4-yl)quinazolin-4-yl)-2,5-dimethylpiperazin-1-yl)prop-2-en-1-one] it was “+ (+ indicates binding activity greater than 0% and up to 50%)”; in that of `C=CC(=O)N1C[C@H](C)N(c2nc(N3CC(N(C)C)C3)nc3c(F)c(-c4ccc(Cl)c5[nH]ncc45)c(Cl)cc23)C[C@H]1C` [Compound 30, 1-((2R,5S)-4-(6-chloro-7-(7-chloro-1H-indazol-4-yl)-2-(3-(dimethylamino)azetidin-1-yl)-8-fluoroquinazolin-4-yl)-2,5-dimethylpiperazin-1-yl)prop-2-en-1-one], “+ (+ indicates binding activity greater than 0% and up to 50%)”. As for `C=CC(=O)N1C[C@H](C)N(c2nc(N3CC(N(C)C)C3)nc3c(F)c(-c4c(C)ccc5[nH]nc(NC6CCC6)c45)c(Cl)cc23)C[C@H]1C` [Compound 36, 1-((2R,5S)-4-(6-chloro-7-(3-(cyclobutylamino)-5-methyl-1H-indazol-4-yl)-2-(3-(dimethylamino)azetidin-1-yl)-8-fluoroquinazolin-4-yl)-2,5-dimethylpiperazin-1-yl)prop-2-en-1-one], the entry is “+ (+ indicates binding activity greater than 0% and up to 50%)”; as for `C=CC(=O)N1C[C@H](C)N(c2nc(N3CC(N(C)C)C3)nc3c(F)c(-c4c(C)ccc5[nH]nc(NC(C)C)c45)c(Cl)cc23)C[C@H]1C` [Compound 39, 1-((2R,5S)-4-(6-chloro-2-(3-(dimethylamino)azetidin-1-yl)-8-fluoro-7-(3-(isopropylamino)-5-methyl-1H-indazol-4-yl)quinazolin-4-yl)-2,5-dimethylpiperazin-1-yl)prop-2-en-1-one], “+ (+ indicates binding activity greater than 0% and up to 50%)”. As for `C=CC(=O)N1C[C@H](C)N(c2nc(N3CC(N(C)C)C3)nc3c(F)c(-c4c(C)ccc5[nH]nc(Br)c45)c(Cl)cc23)C[C@H]1C` [Compound 40, 1-((2R,5S)-4-(7-(3-bromo-5-methyl-1H-indazol-4-yl)-6-chloro-2-(3-(dimethylamino)azetidin-1-yl)-8-fluoroquinazolin-4-yl)-2,5-dimethylpiperazin-1-yl)prop-2-en-1-one], the entry is “+++ (+++ indicates binding activity greater than 80%)”. Turning to `C=CC(=O)N1[C@H](C)CN(c2nc(N3CC(N(C)C)C3)nc3c(F)c(-c4c(C)ccc5[nH]nc(N)c45)c(Cl)cc23)C[C@@H]1C` [Compound 41, 1-((2S,6R)-4-(7-(3-amino-5-methyl-1H-indazol-4-yl)-6-chloro-2-(3-(dimethylamino)azetidin-1-yl)-8-fluoroquinazolin-4-yl)-2,6-dimethylpiperazin-1-yl)prop-2-en-1-one], the Binding % result is “+++ (+++ indicates binding activity greater than 80%)”. As for `C=CC(=O)N1C[C@H](C)N(c2nc(N3CC(N(C)C)C3)nc3c(F)c(-c4c(C)ccc5[nH]nc(N(C)C)c45)c(Cl)cc23)C[C@H]1C` [Compound 42, 1-((2R,5S)-4-(6-chloro-7-(3-(dimethylamino)-5-methyl-1H-indazol-4-yl)-2-(3-(dimethylamino)azetidin-1-yl)-8-fluoroquinazolin-4-yl)-2,5-dimethylpiperazin-1-yl)prop-2-en-1-one], the entry is “+ (+ indicates binding activity greater than 0% and up to 50%)”; as for `C=CC(=O)N1CC2CCC(C1)N2c1nc(N2CC(N(C)C)C2)nc2c(F)c(-c3c(C)ccc4[nH]nc(N)c34)c(Cl)cc12` [Compound 43, 1-((1R,5S)-8-(7-(3-amino-5-methyl-1H-indazol-4-yl)-6-chloro-2-(3-(dimethylamino)azetidin-1-yl)-8-fluoroquinazolin-4-yl)-3,8-diazabicyclo[3.2.1]oc-tan-3-yl)prop-2-en-1-one], “+ (+ indicates binding activity greater than 0% and up to 50%)”.

Take `C=CC(=O)N1C[C@H](C)N(c2nc(N3CC(N(C)C)C3)nc3c(F)c(-c4cccc5ncccc45)c(Cl)cc23)C[C@H]1C` [Compound 44, 1-((2R,5S)-4-(6-chloro-2-(3-(dimethylamino)azetidin-1-yl)-8-fluoro-7-(quinolin-5-yl)quinazolin-4-yl)-2,5-dimethylpiperazin-1-yl)prop-2-en-1-one]: the Binding % result is recorded as “++ (++ indicates binding activity from 50 to 80%)”. In the case of `C=CC(=O)N1C[C@@H](C)N(c2nc(N3CC(N(C)C)C3)nc3c(F)c(-c4c(C)ccc5[nH]nc(N)c45)c(Cl)cc23)[C@@H](C)C1` [Compound 45, 1-((3R,5S)-4-(7-(3-amino-5-methyl-1H-indazol-4-yl)-6-chloro-2-(3-(dimethylamino)azetidin-1-yl)-8-fluoroquinazolin-4-yl)-3,5-dimethylpiperazin-1-yl)prop-2-en-1-one], the Binding % result was “+++ (+++ indicates binding activity greater than 80%)”. With `C=CC(=O)N1C[C@H](C)N(c2nc(N3CC(N(C)C)C3)nc3c(F)c(-c4c(C)ccc5[nH]nc(NCC)c45)c(Cl)cc23)C[C@H]1C` [Compound 46, 1-((2R,5S)-4-(6-chloro-2-(3-(dimethylamino)azetidin-1-yl)-7-(3-(ethylamino)-5-methyl-1H-indazol-4-yl)-8-fluoroquinazolin-4-yl)-2,5-dimethylpiperazin-1-yl)prop-2-en-1-one], the Binding % entry is “++ (++ indicates binding activity from 50 to 80%)”. As to `C=CC(=O)N1C2CCC1CN(c1nc(N3CC(N(C)C)C3)nc3c(F)c(-c4c(C)ccc5[nH]nc(N)c45)c(Cl)cc13)C2` [Compound 47, 1-((1R,5S)-3-(7-(3-amino-5-methyl-1H-indazol-4-yl)-6-chloro-2-(3-(dimethylamino)azetidin-1-yl)-8-fluoroquinazolin-4-yl)-3,8-diazabicyclo[3.2.1]oc-tan-8-yl)prop-2-en-1-one], the Binding % entry is “++ (++ indicates binding activity from 50 to 80%)”. As for `C=CC(=O)N1CCN(c2nc(N3CC(N(C)C)C3)nc3c(F)c(-c4c(C)ccc5[nH]nc(N)c45)c(Cl)cc23)[C@@H](C)C1` [Compound 48, 1-((3S)-4-(7-(3-amino-5-methyl-1H-indazol-4-yl)-6-chloro-2-(3-(dimethylamino)azetidin-1-yl)-8-fluoroquinazolin-4-yl)-3-methylpiperazin-1-yl)prop-2-en-1-one], the entry is “+++ (+++ indicates binding activity greater than 80%)”. In the case of `C=CC(=O)N1C[C@H](C)N(c2nc(OCCN3CCCC3)nc3c(F)c(-c4c(C)ccc5[nH]nc(N)c45)c(Cl)cc23)C[C@H]1C` [Compound 49, 1-((2R,5S)-4-(7-(3-amino-5-methyl-1H-indazol-4-yl)-6-chloro-8-fluoro-2-(2-(pyrrolidin-1-yl)ethoxy)quinazolin-4-yl)-2,5-dimethylpiperazin-1-yl)prop-2-en-1-one] it was “+++ (+++ indicates binding activity greater than 80%)”. As to `C=CC(=O)N1C[C@H](C)N(c2nc(N3CC(N(C)C)C3)nc3c(F)c(-c4c(C)ccc5onc(N)c45)c(Cl)cc23)C[C@H]1C` [Compound 50, 1-((2R,5S)-4-(7-(3-amino-5-methylbenzo[d]isoxazol-4-yl)-6-chloro-2-(3-(dimethylamino)azetidin-1-yl)-8-fluoroquinazolin-4-yl)-2,5-dimethylpiperazin-1-yl)prop-2-en-1-one], the Binding % entry is given as “+++ (+++ indicates binding activity greater than 80%)”.

For the compound `C=CC(=O)N1C[C@H](C)N(c2nc(N3CC(N(C)C)C3)nc3c(F)c(-c4c(C)ccc5nc(C)[nH]c45)c(Cl)cc23)C[C@H]1C` [Compound 52, 1-((2R,5S)-4-(6-chloro-7-(2,6-dimethyl-1H-benzo[d]imidazol-7-yl)-2-(3-(dimethylamino)azetidin-1-yl)-8-fluoroquinazolin-4-yl)-2,5-dimethylpiperazin-1-yl)prop-2-en-1-one], the Binding % result is listed as “++ (++ indicates binding activity from 50 to 80%)”.
